The source made the active and inactive calls. No cut-off for these calls is given here.
How the values were obtained:
Tyrosinase [1] = target: T1, Tyrosinase (Agaricus bisporus, UniProt O42713); assay: Inhibition of mushroom tyrosinase using L-tyrosine as substrate assessed as dopachrome formation preincubated for 10 mins followed by protein addition measured after 20 mins by microplate reader analysis
T1 sequence (O42713 whole entry): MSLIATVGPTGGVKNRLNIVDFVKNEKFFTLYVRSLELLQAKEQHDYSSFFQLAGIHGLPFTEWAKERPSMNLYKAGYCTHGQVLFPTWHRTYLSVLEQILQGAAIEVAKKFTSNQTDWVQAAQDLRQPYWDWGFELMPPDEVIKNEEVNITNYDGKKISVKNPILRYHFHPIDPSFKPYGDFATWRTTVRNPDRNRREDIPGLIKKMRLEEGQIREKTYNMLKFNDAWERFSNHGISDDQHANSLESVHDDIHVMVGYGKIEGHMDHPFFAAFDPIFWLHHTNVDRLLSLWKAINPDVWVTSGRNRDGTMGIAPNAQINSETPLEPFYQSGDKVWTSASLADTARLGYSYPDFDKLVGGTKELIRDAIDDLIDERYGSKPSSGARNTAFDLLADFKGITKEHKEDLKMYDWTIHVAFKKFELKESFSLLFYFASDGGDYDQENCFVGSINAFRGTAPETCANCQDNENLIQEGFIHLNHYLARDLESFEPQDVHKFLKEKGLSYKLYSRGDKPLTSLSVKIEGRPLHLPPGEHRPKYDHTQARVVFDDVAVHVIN

Tyrosinase [2] = target: T1, Tyrosinase; assay: (§1) Inhibition of mushroom tyrosinase monophenolase activity using L-tyrosine as substrate measured every 60 s for 25 times
Tyrosinase [3] = target: T1, Tyrosinase; assay: (§2) Inhibition of mushroom tyrosinase diphenolase activity using L-DOPA as substrate measured every 30 s for 25 times
[4] = target: T2, Tyrosinase (Agaricus bisporus) (UniProt O42713); assay: as §1
T2 sequence (whole entry): T1 sequence (O42713 whole entry)

[5] = target: T2, Tyrosinase (Agaricus bisporus); assay: as §2
[6] = target: T2, Tyrosinase (Agaricus bisporus); assay: Ratio of IC50 for mushroom tyrosinase diphenolase activity using L-DOPA as substrate to IC50 for mushroom tyrosinase monophenolase activity using L-tyrosine as substrate
Tyrosinase [7] = target: T1, Tyrosinase; assay: Inhibition of mushroom tyrosinase using L-DOPA as substrate preincubated for 5 mins followed by substrate addition measured for 2 mins by spectrophotometric analysis
[8] = target: T2, Tyrosinase (Agaricus bisporus); assay: Potency index, ratio of IC50 for benzoic acid to IC50 for test compound for inhibition of mushroom tyrosinase monophenolase activity
[9] = target: T2, Tyrosinase (Agaricus bisporus); assay: Non-competitive inhibition of mushroom tyrosinase monophenolase activity using L-tyrosine as substrate at 5 to 10 uM measured every 60 s for 25 times by Lineweaver-Burk plot analysis
[10] = target: T2, Tyrosinase (Agaricus bisporus); assay: Mixed-type inhibition of mushroom tyrosinase diphenolase activity using L-DOPA as substrate at 3 to 30 uM measured every 30 s for 25 times by Lineweaver-Burk plot analysis

Row | IC50 (Tyrosinase [2]) [µM] | IC50 (Tyrosinase [3]) [µM] | inhibition [4] | Ratio IC50 [6] | SMILES | other results
1 | > 1000 | > 1000 |  |  | O=C(O)c1ccccc1-c1ccccc1 | 
2 |  |  | inactive |  | CCOC(=O)c1cccc(-c2ccccc2)c1 | inhibition [5]: inactive
3 | 63.2 | 216 | Dose-dependent effect | 3.42 | O=C(O)c1ccc(-c2ccccc2)cc1 | 
4 | 6.97 | 36.3 | Dose-dependent effect | 5.21 | O=C(O)c1cccc(-c2ccccc2)c1 | Ratio IC50 [8]: 30; inhibition [9]: Active; inhibition [10]: Active

More lines, now with the values behind:

Row | SMILES | IC50 (Tyrosinase [2]) [µM] | IC50 (Tyrosinase [3]) [µM] | inhibition [4] | Ratio IC50 [6] | other results
5 | Nc1ccc(C(=O)O)cc1 [AMINOBENZOIC ACID] |  |  |  |  | IC50 (Tyrosinase [1]): 3.8 µM
6 | COc1ccc(C(=O)O)cc1 [p-ANISIC ACID] |  |  |  |  | IC50 (Tyrosinase [1]): 420 µM
7 | O=C(O)c1ccccc1 [BENZOIC ACID] | 224 | 822 |  | 3.66 | IC50 (Tyrosinase [7]): 710 µM
